Laboratory results as given in patent US7196163B2, “Assays using amyloid precursor proteins with modified β-secretase cleavage sites to monitor β-secretase activity” (Merk & Co., Inc., priority 2001, dated 2007).
One block for each substance: values may come before it. Ends that are not written are not given here. coumarin = not defined here

Legend:
anti-EVEFR antibodies = assay: ORIGEN non-sandwich competition of peptides with binding of ruthenylated anti-EVEFR antibodies to biotinylated EVEFR; set-up: species or system rabbit; conditions: peptide added over a broad concentration range; FIGS. 3A, 3B
Protocol: Antibody specificity also was evaluated for both lots. An ORIGEN Analyzer (described below) was utilized in a non-sandwich assay to compare the ability of related polypeptides to compete with the binding of ruthenylated anti-EVEFR antibodies to biotinylated EVEFR (SEQ. ID. NO. 58). Certain peptides and conjugated peptides were added as treatments over a broad concentration range, and competitive titrations were made. […] The normal antigen is not acetylated.
Additionally, the specificity of the antibody raised against the EVEFR (SEQ.ID.NO.:58) sequence is tight enough that a conservative change in the epitope presented to the antibody, namely DVEFR(SEQ ID. NO. 60) where the NH-terminus E is conservatively changed to D, the antibody would only recognize the bona fide cleavage product. When measuring products in a cell-based environment, where thousands and perhaps millions of different proteins and epitopes are presented to the antibody, such specificity is required for the absolute measurement of the specific BACE cleavage product. Overall, the polyclonal rabbit antibodies raised against EVEFR (SEQ.ID.NO.:58) are shown to be sufficiently specific for use in detection analyses.
In certain embodiments the antibodies of the present invention are used in an electrochemiluminescence (ECL) detection method known in the art as “Origen” technology (Yang et al., 1994, Bio/Technology 12:193–194; Khorkova et al., 1998. Journal of Neuroscience Methods 82:159–166), and an Origen 1.5 Analyzer (Igen Inc., Gaithersburg, Md.). In embodiments using this ECL-based ORIGEN technology, each purified antibody lot is derivatized to a ruthenium tris-bipyridyl compound. The following provides one example of one of such embodiments.

HEK293T cells = assay: Aβ (IP/Western) and sAPP (Western) produced by APP β-site mutants transiently transfected into HEK293T cells; type: cell-based; conditions: for Aβ level / sAPP level: transfected into 293T cells; for sAPP level: Western blot with LN27; for Aβ production compared with Swedish mutant and wild type APP695: HEK293T cells
From the text: In order to assess the relative suitability of modified β-secretase substrates as substrates that are more reactive than the wild type KMDA cleavage site, plasmid DNA constructs were made expressing 21 different modified β-secretase cleavage site sequences. Table 1, below, summarizes data obtained from most of these modified β-secretase substrates in HEK293T cells. The HEK293T cells were transfected with plasmids containing the genetic sequences for the APP695 polypeptides that contain each of these beta-site substitutions. These plasmids were prepared using the method described above in Example 1. Transient transfection was performed using LipofectaminePlus reagent (Gibco/BRL, Rockville, Md.) according to the instructions of the manufacturer. Media was harvested 48 hrs post transfection. Then Western blot analysis was used to determine levels of sAPP and IP/Western to determine levels of Aβ. Several volumes of conditioned media, 20 μl, 10 μl, 5 μl, 2.5 μl, from the transiently transfected cells were run on 10% SDS-PAGE gels and transferred to PVDF for the measurement of sAPP. Each blot contained a titration of wild type APP transfected conditioned media to normalize for any experimental variations derived from transferring of the gels and western blot detection. The blots were then probed with the antibody LN27 (Zymed, Calif.) to detect the secreted APP, sAPP. Densitometry of each western blot determined the relative amount of total APP expressed in each transfection.
To determine the levels of Aβ, each of the conditioned media was immuno-precipitated and analyzed via the following method. 5 μg of monoclonal antibody G2-10 (a monoclonal antibody that immunologically binds to the carboxyl end of Aβ40, licensed from University of Heidelberg) was added to 1 ml of each conditioned media. The mixture was rotated overnight at 4° C. for 16 hours. 25 μl of a 50% slurry of Protein A sepharose Fast flow beads (Amersham, N.J.) was added and incubation continued, rotating, for 2 hours at 4° C. The beads were pelleted and the supernatant was removed. The beads were washed once with 1 ml PBS. This material was then run on SDS-Tricine gels for analysis. 20 μl of 2×tricine loading buffer was added to the pellet and the mixture was heated at 95° C. for 5 minutes. A pipette tip was used to mix and load the whole mixture (beads included) onto a Bio-Rad 10–20% Tricine gel. The gels were electrophoresed at 125 Volts for 2 hours and 15 minutes and then transferred onto 0.2 μm nitrocellulose backed by a 0.1 μm nitrocellulose membrane for 75 minutes at 100V constant. Blots were then washed in PBS and boiled in PBS for 5 minutes before blocking in PBS plus 0.05% Tween-20 (PBST) with 5% non-fat milk for 60 minutes at room temperature. The milk was washed off twice with PBST and the blots were incubated overnight at 4° C. with G2-10 in PBST (1:1000 dilution). Blots were washed five times for 5 minutes each with large volumes of PBST and the secondary antibody of Goat anti-mouse IgG2b-HRP (Southern Biotechnology Associates, Inc., Birmingham, Ala.) was added at 1:5000 in PBST-5% milk and incubated, rocking, for 1 hour at room temperature. The blots were again washed, five times for 10 minutes each in large volumes of PBST. The substrate Pico ECL (Pierce) was added for 5 minutes and the blots were exposed to Kodak BioMax film. After western analysis was complete, the bands were quantitated by densitometry. For both the sAPP and the Aβ, the GFP control plasmid transfection serves as the background reference level (1×).

[1] = system: immortalized β-secretase-/-mouse fibroblast cells; assay: Aβ production after transfection into immortalized β-secretase-/- mouse fibroblast cells, with or without human β-secretase; type: cell-based; conditions: no β-secretase co-transfected
From the text: Production of Aβ in β-secretase-/-cells could be rescued by co-transfection of the APP-derived polypeptides comprising modified β-secretase cleavage site sequences with human β-secretase.

Cultured cells = conditions: cultured cells expressing cDNA encoding APP; cited from earlier work
2081 antibody = assay: Competition of peptides against biotinylated-SEVNF for binding of the 2081 antibody; set-up: species or system rabbit
Protocol: To determine the specificity of the 2081 antibody, competition experiments against the biotinylated-SEVNF with the following peptides were performed: SEVNF, SEVN, SEVNFE, SEVNL, and SEVNLD. The experiment was performed similar to the experiment outlined in Example 2 to determine the specificity of antibody 2081.

BACE 1 = BACE 1 (Homo sapiens, UniProt P56817); assay: Homogeneous end point HPLC assay of BACE 1 cleavage of coumarin substrate; type: biochemical
Sequence of BACE 1 (P56817 46-457 limits assumed): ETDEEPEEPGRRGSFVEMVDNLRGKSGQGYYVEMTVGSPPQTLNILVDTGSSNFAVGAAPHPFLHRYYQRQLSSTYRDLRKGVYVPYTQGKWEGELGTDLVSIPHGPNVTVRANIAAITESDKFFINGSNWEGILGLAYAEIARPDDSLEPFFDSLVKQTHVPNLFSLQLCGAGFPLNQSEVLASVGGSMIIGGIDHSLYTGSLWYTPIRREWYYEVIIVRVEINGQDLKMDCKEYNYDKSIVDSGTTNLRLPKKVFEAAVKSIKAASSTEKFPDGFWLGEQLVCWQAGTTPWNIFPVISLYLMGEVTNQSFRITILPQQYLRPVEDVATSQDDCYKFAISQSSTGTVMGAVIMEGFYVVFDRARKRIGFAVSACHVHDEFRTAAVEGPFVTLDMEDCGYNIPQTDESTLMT
Protocol: A typical reaction contains 2 nM enzyme, 1.0 μM of the substrate, and buffer (50 mM NaOAc, pH 4.5, 0.1 mg/ml BSA, 0.2% CHAPS, 15 mM EDTA and 1 mM deferoxamine) in a total reaction volume of 100 μL. The reaction is proceeded for 30 min and the reaction is stopped by the addition of 25 μL of 1 M Tris-HCl, pH 8.0. The resulting reaction mixture was loaded on the HPLC and the product was separated from substrate with 5 min linear gradient. […] The enzyme used in these studies was soluble (transmembrane domain and cytoplasmic extension excluded) human protein produced in a baculovirus expression system. […] All experiments were conducted at room temperature using the standard reaction conditions described above. To determine the IC50 of the compound, four parameters equation is employed for curve fitting.

- competition with biotinylated EVEFR for anti-EVEFR binding (anti-EVEFR antibodies): unable to compete for binding
Substance: DAEFR (peptide for use in antibody specificity evaluation)

- competition with biotinylated EVEFR for anti-EVEFR binding (anti-EVEFR antibodies): somewhat higher level of interference
Substance: DVEFR (peptide for use in antibody specificity evaluation)

- competition with biotinylated EVEFR for anti-EVEFR binding (anti-EVEFR antibodies): competed with biotinylated EVEFR
Substance: EVEFR (peptide simulating cleaved portion from carboxy side of novel sequence at known enzyme cleavage site) [penta-peptide at the amino-terminal end of CTFβ from NFEV or FFEV substrates]

Substance: FFAV: APP695-derived polypeptide with FFAV at the β-secretase cleavage site
- Aβ level (HEK293T cells): below the limit of detection
- sAPP level (HEK293T cells): below the limit of detection

Substance: KFAA: APP695-derived polypeptide with KFAA at the β-secretase cleavage site
- Aβ level (HEK293T cells): below the limit of detection
- sAPP level (HEK293T cells): below the limit of detection

Substance: KYAA: APP695-derived polypeptide with KYAA at the β-secretase cleavage site
- Aβ level (HEK293T cells): below the limit of detection
- sAPP level (HEK293T cells): below the limit of detection

Substance: NFAV: APP695-derived polypeptide with NFAV at the β-secretase cleavage site
- Aβ level (HEK293T cells): below the limit of detection
- sAPP level (HEK293T cells): below the limit of detection

Substance: NFDV: APP695-derived polypeptide with NFDV at the β-secretase cleavage site
- Aβ level (HEK293T cells): below the limit of detection
- sAPP level (HEK293T cells): below the limit of detection

Substance: NFEA: APP695-derived polypeptide with NFEA at the β-secretase cleavage site
- Aβ level (HEK293T cells): below the limit of detection
- sAPP level (HEK293T cells): below the limit of detection
- production of Aβ [1]: no production of Aβ was observed

Substance: NFEV: APP695-derived polypeptide with NFEV at the P2-P1-P1′-P2′ β-secretase cleavage site
- Aβ production compared with Swedish mutant and wild type APP695 (HEK293T cells): high levels of Aβ, comparable to that generated by the APP Swedish mutant
- rate of cleavage relative to similar substrate with wild-type KMDA sequence (HEK293T cells; in an APP backbone, expressed in tissue culture cells): 15–20 times
- production of Aβ [1]: no production of Aβ was observed

Substance: NFTV: APP695-derived polypeptide with NFTV at the β-secretase cleavage site
- Aβ level (HEK293T cells): below the limit of detection
- sAPP level (HEK293T cells): below the limit of detection

Substance: NLDA (Swedish): APP Swedish mutant, NLDA at the β-secretase cleavage site
- Aβ produced relative to cells expressing wild-type APP (Cultured cells): 6–8 fold

Substance: NLDV: APP695-derived polypeptide with NLDV at the β-secretase cleavage site
- Aβ production compared with Swedish mutant and wild type APP695 (HEK293T cells): over three times the level of wild type APP695
- Aβ Level produced by APP β-site mutants in HEK293T cells (HEK293T cells; media 48 hrs post transfection, IP/Western with G2-10, densitometry, GFP control = 1X): 10–15X
- production of Aβ [1]: no production of Aβ was observed

Substance: NYAA: APP695-derived polypeptide with NYAA at the β-secretase cleavage site
- Aβ level (HEK293T cells): below the limit of detection
- sAPP level (HEK293T cells): below the limit of detection

Substance: NYDV: APP695-derived polypeptide with NYDV at the β-secretase cleavage site
- Aβ level (HEK293T cells): below the limit of detection
- sAPP level (HEK293T cells): below the limit of detection

Substance: NYEA: APP695-derived polypeptide with NYEA at the β-secretase cleavage site
- Aβ level (HEK293T cells): below the limit of detection
- sAPP level (HEK293T cells): below the limit of detection

- competition against biotinylated-SEVNF for binding of the 2081 antibody (2081 antibody): could not compete
Substance: SEVN

- competition against biotinylated-SEVNF for binding of the 2081 antibody (2081 antibody): could compete
Substance: SEVNF (SEVNF-OH) [five C-terminal amino acids of the modified sAPPβ fragment]

- competition against biotinylated-SEVNF for binding of the 2081 antibody (2081 antibody): could not compete
Substance: SEVNFE

- competition against biotinylated-SEVNF for binding of the 2081 antibody (2081 antibody): limited amount of competition
- effectiveness of competition relative to SEVNF (2081 antibody; less effective than SEVNF): 100 fold
Substance: SEVNL

- competition against biotinylated-SEVNF for binding of the 2081 antibody (2081 antibody): could not compete
Substance: SEVNLD

- competition with biotinylated EVEFR for anti-EVEFR binding (anti-EVEFR antibodies): slight competitive interference
Substance: VEFR (peptide simulating cleaved portion from carboxy side of novel sequence at known enzyme cleavage site, lacking end amino acid)

- competition with biotinylated EVEFR for anti-EVEFR binding (anti-EVEFR antibodies): does not bind well to the antibody
Substance: acetylated-EVEFR (Ac-EVEFR)

- substrate processed by BACE 1 (BACE 1; 2 nM enzyme, 1.0 μM substrate, 30 min, pH 4.5, room temperature): less than 10%
- Km (BACE 1; cannot be determined due to limit of solubility of the substrate): > 100 µM
Substance: coumarin-CO-REVNFEVEFR

- competition with biotinylated EVEFR for anti-EVEFR binding (anti-EVEFR antibodies): did not compete well
Substance: coumarin-bound deca-peptide: coumarin-bound deca-peptide including the EVEFR sequence; possibly coumarin-CO-REVNFEVEFR (coumarin-REVNFEVEFR; not fully specified; printed as coumarin-CO-REVNFEVEFR; reading uncertain)
